Reference: article PMC10673615, “Quercetin-1,2,3-Triazole Hybrids as Multifunctional Anti-Alzheimer’s Agents” (Molecules, 2023)

How the values were obtained:
eqBuChE [1] = biological target: T1, eqBuChE (Equus caballus, UniProt P81908); assay: Ellman cholinesterase inhibitory assay, eqBuChE (screening and IC50); format: biochemical; settings: for inhibition at 100 µM: compound 100 µM, substrate 3 mM; for IC50: concentration range 1.2-300 µM, BTCI 0.8 mM, read-out: IC50 values for eqBuChE
T1 construct: equine serum butyrylcholinesterase (eqBuChE); purchased Sigma-Aldrich (lyophilized powder, 10.9 U/mg); host or cells: equine serum
Protocol: (§1) Firstly, the inhibitory activity of the quercetin-1,2,3-triazole hybrids I–IV was screened in vitro on eeAChE and eqBuChE at a concentration of 100 μM (these enzymes are considered as models of the human isoform). The ChE inhibitory activity of all compounds was evaluated using the method of Ellman.
(§2) The inhibitory activities of title compounds against commercially available cholinesterases (eeAChE) (Electrophorus electricus, Type V-S), eqBuChE (equine serum), were conducted using minor modifications of Ellman’s assay. Nine different concentrations ([…], 37.5, 75, 150, and 300 μM in H2O:DMSO (50:50)) of each test compound were used to determine the enzyme-inhibition activity. Briefly, 55 μL of 50 mM Tris-HCl buffer at pH 8, 25 μL of eqBuChE (0.03 U/mL), 20 μL of the test or standard compounds, and 125 μL of DTNB (0.8 mM) were incubated in 96-well plates at 37 °C for 15 min. Further, 25 μL of the substrate, BTCI (0.8 mM), was added, and the solution was incubated for additional 15 min. Finally, the absorbance was measured at 412 nm wavelength using a Microplate Spectrophotometry (TriStar® S LB 942 model instrument). The IC50 values were determined from the absorbance obtained for various concentrations of the test and the standard compounds. All determinations were performed in triplicate.
(§3) To determine the % of inhibition ([I] = 100 μM), the substrate concentration (acetylthiocholine iodide for AChE; S-butyrylthiocholine iodide for BuChE) was fixed at 3 mM.

MCF-7 cells [2] = assay: Protective assay against hydrogen peroxide-induced oxidative stress in MCF-7 cells; format: cell-based, Human; settings: 100 µM H2O2, 2 h
Protocol: (§4) Given the importance of oxidative stress-induced apoptosis of neuronal cells in AD, we present here a study to investigate the effect of quercetin-1,2,3-triazole hybrids on H2O2-induced oxidative damage in cultured MCF-7 cells, used as a human cell model. Viability was assessed with the WST-1 test in the absence and in the presence of an oxidative stressor (10^−4 M H2O2).
(§5) MCF-7 (Human breast adenocarcinoma (MERCK—# 86012803-DNA-5UG), Database Name: ECACC collection, Accession Numbers: 86012803) was the cell line elected as a cell injury model for the study of the potential protective effect of the butyrylcholinesterase inhibitors (hybrids) against hydrogen peroxide-induced oxidative stress. Cytotoxicity of the hybrids was also evaluated.
(§6) The culture medium was subsequently replaced with different final concentrations (6.25–50 μM) of the compounds to be tested. Negative controls were prepared, incubating cells in culture media.
(§7) Parallel experiments were performed for cytotoxicity assessment and for protective effect against hydrogen peroxide-induced oxidative stress evaluation. First, 10 μL of PBS was added in the designated wells; second, 10 μL of H2O2 (reaching a final concentration of 100 µM) was added. Following a 2 h incubation period at 37 °C in 5% CO2 atmosphere incubator, cellular viability was measured by adding WST-1 dehydrogenases substrate and incubating for 1 h, and the amount of formazan dye produced was evaluated by measuring the absorbance at 440 nm.

Artemia salina = Artemia salina lethal toxicity assay; format: in vivo; settings: for concentrations without toxicity: Artemia salina
Protocol: (§8) Artemia salina was used for in vivo general toxicity assessment of the promising hybrids IVb, IVd, and IIf; the results are shown in Table 4 and Figure 7. K2Cr2O7 was used as a control. Hybrid IVd presented the lowest toxicity.
(§9) The ARTOXKIT M protocol was used. The percentage of dyed nauplii of Artemia salina, grown in the presence of variable concentrations of the inhibitor compounds, was measured to determine the LC50 values. A test with K2Cr2O7 was used for quality control.

[3] = Artemia salina lethal toxicity assay; format: in vivo; settings: Artemia salina, in vivo, other: grown in the presence of the compound, Artemia salina nauplii
Protocol: as §8, §9

[4] = DPPH radical scavenging antioxidant assay
Protocol: To assess the antioxidant activity of hybrids IVa–e, IIf and quercetin, the 2,2-diphenyl-1-[…] (DPPH) radical scavenging colorimetric method was used, which is one of the most widely used methods for determining antioxidant activity. In this method, antioxidants react with DPPH (which has a strong violet color) and convert it into yellow diphenylpicrylhydrazine. Compounds were assayed in the range of concentrations from 3 to 200 μg/mL. Ascorbic acid was used as positive control. […] Another piece of evidence is the similarity between the % inhibition values of hybrids IVa,b and IVd,e and quercetin.
The colorimetric DPPH assay was carried out as described in [33]. […] In brief, 30 μL of a test compound (in MeOH) was mixed with 200 μL of DPPH (100 μM in methanol) in a 96-well plate in triplicate. After 30 min incubation at room temperature in the absence of light, the absorbances were measured at 517 nm using Microplate Spectrophotometry (TriStar® S LB 942 model instrument). The free radical scavenging activity results are expressed as a percentage of DPPH inhibition according to the following formula:
% of Inhibition = 100[(A(Blank) − A(sample))/A(blank)], where A(blank) consists of methanol (30 μL) mixed with DPPH (200 μL) absorbance, and A(sample) is the absorbance value for the added sample concentration compound mixed with DPPH. Ascorbic acid was used as a positive control.

eqBuChE [5] = biological target: T1, eqBuChE; assay: Kinetic study for the inhibition of eqBuChE (Lineweaver-Burk); format: biochemical; settings: for Inhibition type / Ki: Lineweaver-Burk; for Ki: read-out: Ki (inhibitory constant)
Source text: The interaction with the active center of the enzyme thus seems to be favored by the presence of polar groups. Hybrid IIf presented the smaller Ki (Table 3), binding to the enzyme with the higher affinity, which can be relevant for pharmacologic applications in the future.
Lineweaver–Burk plot (1/V vs. 1/[BTCI]) was used for determining the inhibition constants (Ki’s) and the mechanism of action.

eeAChE = biological target: T2, eeAChE (Electrophorus electricus, UniProt O42275); assay: Ellman cholinesterase inhibitory assay, eeAChE screening; format: biochemical; settings: compound 100 µM; substrate 3 mM
T2 construct: catalogue number not given
Protocol: as §1, §2, §3

[6] = test system: REM-138 cell line (canine breast cancer); parameters: method as in doi:10.1055/s-0040-1719928; settings: REM cells; 72 h incubation; cited from earlier work
MCF-7 cells [7] = assay: in vitro
Protocol: as §4, §5
(§10) The compounds to be tested were firstly dissolved in dimethyl sulfoxide (DMSO) at a concentration of 4 × 10^−2 M. They were then diluted in cell growth media (EMEM) (supplemented with FBS 10%) with 0.25% DMSO to obtain solutions between 6.25 and 50.00 µM.
(§11) Eagle’s Minimum Essentia Medium (EMEM), including 10% fetal bovine serum (FBS), 100 IU/mL penicillin, and 100 μg/mL streptomycin, was used to culture MCF-7 cells at 37 °C in 5% CO2 atmosphere incubator with media replenished every 2 days. A total of 5 × 10^3 cells were cultured in 96-well plates and incubated for 72 h prior to stimulus application.
as §6, §7

in vitro = settings: human
Protocol: as §4, §5, §10, §11, §6, §7

T1 sequence (P81908 whole entry): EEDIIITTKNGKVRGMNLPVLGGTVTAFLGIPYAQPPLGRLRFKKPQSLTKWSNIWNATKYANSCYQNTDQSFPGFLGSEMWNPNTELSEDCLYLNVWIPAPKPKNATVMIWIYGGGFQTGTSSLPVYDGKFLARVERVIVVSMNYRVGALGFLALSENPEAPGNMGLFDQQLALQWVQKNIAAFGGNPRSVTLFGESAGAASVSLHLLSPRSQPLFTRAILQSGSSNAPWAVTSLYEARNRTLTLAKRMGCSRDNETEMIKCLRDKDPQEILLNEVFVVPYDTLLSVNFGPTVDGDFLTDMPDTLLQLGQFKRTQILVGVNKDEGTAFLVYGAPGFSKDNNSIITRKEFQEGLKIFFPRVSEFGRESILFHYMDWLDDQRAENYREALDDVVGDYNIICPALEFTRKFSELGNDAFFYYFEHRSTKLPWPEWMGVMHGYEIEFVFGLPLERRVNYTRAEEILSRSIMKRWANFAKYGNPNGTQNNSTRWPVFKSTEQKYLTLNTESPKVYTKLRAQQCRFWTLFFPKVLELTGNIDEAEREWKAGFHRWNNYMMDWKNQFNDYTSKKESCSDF
T2 sequence (O42275 24-633): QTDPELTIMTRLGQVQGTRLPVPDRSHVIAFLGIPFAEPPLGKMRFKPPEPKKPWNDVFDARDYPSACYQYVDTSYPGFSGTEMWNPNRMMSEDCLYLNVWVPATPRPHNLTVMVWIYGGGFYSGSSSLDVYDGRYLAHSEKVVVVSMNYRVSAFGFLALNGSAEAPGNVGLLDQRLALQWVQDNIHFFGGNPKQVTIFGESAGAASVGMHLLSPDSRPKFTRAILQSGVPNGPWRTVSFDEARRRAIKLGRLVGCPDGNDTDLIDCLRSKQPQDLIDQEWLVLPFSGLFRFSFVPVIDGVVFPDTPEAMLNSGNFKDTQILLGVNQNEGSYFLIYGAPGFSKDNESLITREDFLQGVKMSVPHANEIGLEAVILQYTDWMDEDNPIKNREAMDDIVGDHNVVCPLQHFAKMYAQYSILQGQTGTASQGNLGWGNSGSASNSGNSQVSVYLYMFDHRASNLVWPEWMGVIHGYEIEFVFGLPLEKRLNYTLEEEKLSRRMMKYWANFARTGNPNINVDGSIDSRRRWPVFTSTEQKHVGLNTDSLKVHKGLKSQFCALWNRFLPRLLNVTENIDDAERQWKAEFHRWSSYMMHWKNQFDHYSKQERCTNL

COc1cc(OC)c2c(=O)c(OCCCCn3cc(CN4C(=O)C(=O)c5ccccc54)nn3)c(-c3ccc(OC)c(OC)c3)oc2c1 [IIf, 1-((1-(4-((2-(3,4-Dimethoxyphenyl)-5,7-dimethoxy-4-oxo-4H-chromen-3-yl)oxy)butyl)-1H-1,2,3-triazol-4-yl)methyl)indoline-2,3-dione]
inhibition at 100 µM (eqBuChE [1]): 100%
IC50 (eqBuChE [1]): 11.2 µM
cellular antioxidant protection against H2O2 (MCF-7 cells [2]): equally effective in the antioxidant protection
concentrations without toxicity (Artemia salina): ≤ 10 µM
LC50 [3]: 34.6 µM
DPPH antioxidant activity ([4]; 3 to 200 μg/mL): no antioxidant activity
Inhibition type (eqBuChE [5]): competitive inhibition
Ki (eqBuChE [5]): 6.2 µM
Vmax app (eqBuChE [5]; inhibitor 5 µM): 11.8 U.mg^−1
Vmax app (eqBuChE [5]; inhibitor 20 µM): 11.4 U.mg^−1
Vmax app (eqBuChE [5]; inhibitor 40 µM): 13.4 U.mg^−1
inhibition at 100 µM (eeAChE): 24.3%

O=c1c(OCCCCn2cc(-c3ccccc3)nn2)c(-c2ccc(O)c(O)c2)oc2cc(O)cc(O)c12 [IVa, 2-(3,4-Dihydroxyphenyl)-5,7-dihydroxy-3-(4-(4-phenyl-1H-1,2,3-triazol-1-yl)butoxy)-4H-chromen-4-one]
inhibition at 100 µM (eqBuChE [1]): 82.8%
IC50 (eqBuChE [1]): 24.7 µM
cytotoxic concentration [6]: > 10 µM
DPPH antioxidant activity ([4]; 100 μg/mL): potent antioxidant activity
reduction of cellular viability (MCF-7 cells [7]; 6.25 μM, MCF-7, 2 h, without H2O2): 40%
inhibition at 100 µM (eeAChE): 0%

CC(C)(O)c1cn(CCCCOc2c(-c3ccc(O)c(O)c3)oc3cc(O)cc(O)c3c2=O)nn1 [IVd, 2-(3,4-Dihydroxyphenyl)-5,7-dihydroxy-3-(4-(4-(2-hydroxypropan-2-yl)-1H-1,2,3-triazol-1-yl)butoxy)-4H-chromen-4-one]
inhibition at 100 µM (eqBuChE [1]): 56.6%
IC50 (eqBuChE [1]): 39 µM
cellular antioxidant protection against H2O2 (MCF-7 cells [2]): equally effective in the antioxidant protection
LC50 (Artemia salina; Artemia salina nauplii, read-out: LC50): ≥ 100 µM
LC50 [3]: > 100 µM
DPPH antioxidant activity ([4]; 100 μg/mL): potent antioxidant activity
EC50 at 2 h (in vitro): > 50 µM
Inhibition type (eqBuChE [5]): competitive inhibition
Ki (eqBuChE [5]): 36 µM
Vmax app (eqBuChE [5]; inhibitor 17.5 µM): 9.6 U.mg^−1
Vmax app (eqBuChE [5]; inhibitor 35 µM): 9.0 U.mg^−1
inhibition at 100 µM (eeAChE): 3.65%

O=c1c(OCCCCn2cc(C3CC3)nn2)c(-c2ccc(O)c(O)c2)oc2cc(O)cc(O)c12 [IVb, 3-(4-(4-Cyclopropyl-1H-1,2,3-triazol-1-yl)butoxy)-2-(3,4-dihydroxyphenyl)-5,7-dihydroxy-4H-chromen-4-one]
inhibition at 100 µM (eqBuChE [1]): 90.5%
IC50 (eqBuChE [1]): 32.4 µM
cellular antioxidant protection against H2O2 (MCF-7 cells [2]): equally effective in the antioxidant protection
cytotoxic concentration [6]: > 10 µM
concentrations without toxicity (Artemia salina): ≤ 10 µM
LC50 [3]: 10 to 100 µM
DPPH antioxidant activity ([4]; 100 μg/mL): potent antioxidant activity
cytotoxic concentration (MCF-7 cells [7]; human, 2 h): > 25 µM
Inhibition type (eqBuChE [5]): mixed type (non-competitive)
Ki (eqBuChE [5]): 30 µM
Vmax app (eqBuChE [5]; inhibitor 17.5 µM): 7.5 U.mg^−1
Vmax app (eqBuChE [5]; inhibitor 35 µM): 6.5 U.mg^−1
Vmax app (eqBuChE [5]; inhibitor 70 µM): 4.5 U.mg^−1
inhibition at 100 µM (eeAChE): 5.21%

COc1ccc2c3c1O[C@H]1C[C@@H](O)C=C[C@@]31CCN(C)C2 [Galantamine, reference compound]
cellular antioxidant protection against H2O2 (MCF-7 cells [2]): good antioxidant cellular protection
effect on cellular viability (MCF-7 cells [7]; concentrations tested 6.25-50 μM, MCF-7): did not reduce cellular viability
